Experimental data taken from patent publication US20250230151A1, “COMPOUNDS FOR CANCERS DRIVEN BY BRAF MUTATION” (THE BOARD OF TRUSTEES OF THE UNIVERSITY OF ILLINOIS, priority 2021, published 2025).

How the values were obtained:
A375 cells = assay: 72-hour cell viability assay (Alamar Blue), A375; assay type: cell-based, human; conditions: for IC50: 72-hour incubation, Alamar Blue, V600E BRAF; for Emax: A-375, A375, 72-hour incubation
Method: Cell Culture and reagents. All cell lines were grown in a 37° C., 5% CO2, humidified environment, in media containing 1% penicillin/streptomycin. Cell culture conditions are as follows: MDCK cells transfected with MDR1 (or ABCB1) were obtained from the Netherlands Cancer Institute (Amsterdam, The Netherlands) and maintained in DMEM with 10% fetal bovine serum (FBS, Gemini). Traditional cell lines A375, CHL-1, B16F10, and U118MG were grown in DMEM with 10% FBS, SK-MEL-28, U87 and T98G in EMEM with 10% FBS, AM-38 in EMEM with 20% HI-FBS (Gibco), HT29 in McCoy's 5A with 10% FBS, HCT116 in RPMI with 10% FBS. Compounds were dissolved in DMSO (1% final concentration, Sigma-Aldrich) for cell culture studies.
Cell viability assays. Cells were harvested, seeded in a 96-well plate and allowed to adhere overnight. Compound was added to each well in DMSO (1% final concentration). Cells were incubated for 72 hours before viability was assessed by the Alamar Blue Assay. Raptinal ([…]) was used as a dead control.

P-gp = target: T1, P-gp (Homo sapiens, UniProt P08183); assay: MDR1-MDCK P-gp transwell bidirectional transport assay; assay type: in vitro ADME; conditions: 10 μM, 90 min; for Papp A→B at 90 min, 10 µM / Papp B→A at 90 min, 10 µM / efflux ratio at 90 min, 10 µM: dog, MDCK-MDR1, MDR1-MDCK; for efflux ratio at 90 min, 10 µM: read-out: ER (efflux ratio) (converted)
T1 construct: host or cells: MDCK (MDR1-MDCK)
Method: A novel compound collection composed of complex and diverse compounds derived from natural products, termed “Complexity-to-Diversity Collection” was employed. […] The CtD compounds were evaluated by the efflux pump and their permeability using the P-gp transwell assay using adapted and optimized known protocols. Compound transport across epithelial cells overexpressing P-gp from basolateral-to-apical and apical-to-basolateral directions were quantified to calculate permeability and efflux ratio.
P-gp transwell bidirectional transport assays. Unless noted otherwise, the transport assay was performed in triplicate in batches of 16 or 24 test compounds, with each batch containing quinidine as a substrate control and propranolol as a non-substrate control. MDR1-MDCK cells were plated at a density of 300,000 cells/cm^2 onto 96-well Falcon™ Multiwell Insert System with 1 µm pore polycarbonate filters with angled-bottom receiver plates (Coming) and were fed with the cell growth medium on day 2.
The donor solution was prepared by adding 1 mM DMSO stocks of compounds to make the final concentration […], and the receiver solution was prepared with equivalent volume of DMSO to make 1% DMSO in final assay chamber volumes.
After 80-96 hours since seeding, the growth media on both sides was aspirated. To the transwell plate (apical side), 50 μL of receiver and donor solutions prepared on a 96-well plate were added, and it was placed on top of a separate angled-bottom 96-well plate (basolateral side) containing 260 μL of receiver and donor solutions.
Following 90 minutes of incubation at 37° C. with shaking at 90 rpm, 20 μL aliquot of samples were taken from both the donor and receiver chambers, and the apical and basolateral sides. Aliquots of 4 test compounds were pooled for each category: apical-donor, apical-receiver, basolateral-donor, basolateral-receiver. To measure CO and mass balance, initial donor samples from both apical and basolateral side were set aside from the assay plate. Acetonitrile twice the volume of pooled samples was added and mixed thoroughly, and precipitated proteins were removed by centrifugation at 20,000 r.c.f for 10 minutes.
To ascertain the MDCK monolayer integrity, the solution on apical side contained 100 µM Lucifer Yellow (Millipore-Sigma). After 90 minutes of compound transport, Lucifer Yellow concentration in the basal well was measured using SpectraMax M3 (Molecular Devices) set to an excitation wavelength of 430 nm and an emission wavelength of 540 nm.
Samples were analyzed with the 5500 QTRAP LC/MS/MS system (AB Sciex) with a 1200 series HPLC system (Agilent Technologies) including a degasser, an autosampler, and a binary pump. The liquid chromatography separation was performed on an Agilent SB-Aq column (4.6×50 mm, 5 μm) (Agilent Technologies) with mobile phase A (0.1% formic acid in water) and mobile phase B (0.1% formic acid in acetonitrile). The flow rate was 0.3 ml min^−1. The linear gradient was optimized for each compound. The autosampler was set at 5° C. The injection volume was 15 μL. Mass spectra were acquired with both positive electrospray ionization at the ion spray voltage of 5,500 V and negative electrospray ionization at the ion spray voltage of −4,500 V. The source temperature was 450° C. The curtain gas, ion source gas 1, and ion source gas 2 were 33, 50 and 65, respectively. Multiple reaction monitoring was used to quantify metabolites.
Efflux data calculations.

T1 sequence (P08183 whole entry): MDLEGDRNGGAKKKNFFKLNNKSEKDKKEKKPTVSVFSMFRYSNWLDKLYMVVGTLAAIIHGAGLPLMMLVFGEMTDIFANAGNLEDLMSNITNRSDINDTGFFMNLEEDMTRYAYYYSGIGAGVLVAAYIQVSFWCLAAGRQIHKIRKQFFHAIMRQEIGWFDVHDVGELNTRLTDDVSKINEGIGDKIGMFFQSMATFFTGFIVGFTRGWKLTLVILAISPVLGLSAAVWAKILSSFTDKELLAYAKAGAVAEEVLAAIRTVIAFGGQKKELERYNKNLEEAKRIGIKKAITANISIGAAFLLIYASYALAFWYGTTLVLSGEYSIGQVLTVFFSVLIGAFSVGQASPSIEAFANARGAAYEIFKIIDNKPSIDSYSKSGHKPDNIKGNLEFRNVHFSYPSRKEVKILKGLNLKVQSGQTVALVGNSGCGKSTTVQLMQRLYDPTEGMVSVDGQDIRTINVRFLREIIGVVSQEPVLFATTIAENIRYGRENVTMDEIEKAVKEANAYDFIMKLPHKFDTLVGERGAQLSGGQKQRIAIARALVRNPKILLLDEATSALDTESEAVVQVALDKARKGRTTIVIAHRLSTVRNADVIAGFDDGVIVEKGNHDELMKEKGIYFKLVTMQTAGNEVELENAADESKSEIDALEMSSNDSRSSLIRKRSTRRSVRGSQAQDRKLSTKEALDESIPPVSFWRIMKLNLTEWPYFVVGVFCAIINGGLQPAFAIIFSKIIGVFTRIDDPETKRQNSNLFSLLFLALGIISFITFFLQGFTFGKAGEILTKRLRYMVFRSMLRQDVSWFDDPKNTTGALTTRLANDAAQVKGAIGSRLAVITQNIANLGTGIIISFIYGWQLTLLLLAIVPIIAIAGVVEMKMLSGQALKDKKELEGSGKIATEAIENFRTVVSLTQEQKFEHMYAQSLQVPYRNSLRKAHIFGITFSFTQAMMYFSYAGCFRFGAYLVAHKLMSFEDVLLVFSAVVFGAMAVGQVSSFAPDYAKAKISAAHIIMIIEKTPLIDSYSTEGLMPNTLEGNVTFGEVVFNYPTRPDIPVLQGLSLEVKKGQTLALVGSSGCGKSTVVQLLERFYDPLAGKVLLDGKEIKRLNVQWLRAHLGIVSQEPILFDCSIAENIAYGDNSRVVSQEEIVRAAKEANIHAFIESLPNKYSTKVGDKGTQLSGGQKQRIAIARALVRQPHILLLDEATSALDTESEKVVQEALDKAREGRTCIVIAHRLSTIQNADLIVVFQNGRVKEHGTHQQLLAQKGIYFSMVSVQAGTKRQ

| SMILES | IC50 (A375 cells; Homo sapiens, A-375, 72 h) [nM] | Papp A→B at 90 min, 10 µM (P-gp) [×10⁻⁶ cm/s] | Papp B→A at 90 min, 10 µM (P-gp) [×10⁻⁶ cm/s] | efflux ratio at 90 min, 10 µM (P-gp) | IC50 (A375 cells) [nM] | Papp A-B (P-gp; MDR1-MDCK) [nm/s] | Papp B-A (P-gp; MDR1-MDCK) [nm/s] | ER (efflux ratio) (P-gp; MDR1-MDCK) | Emax (A375 cells; Homo sapiens) [%] |
| --- | --- | --- | --- | --- | --- | --- | --- | --- | --- |
| CC(C)(C)c1nc(-c2cccc(NS(=O)(=O)c3c(F)cccc3F)c2F)c(-c2ccnc(Nc3ccc(C(=O)O)cc3)n2)s1 [6-77, 4-((4-(2-(tert-butyl)-4-(3-((2,6-difluorophenyl)sulfonamido)-2-fluorophenyl)thiazol-5-yl)pyrimidin-2-yl)amino)benzoic acid] | > 1000 | 1.58 ± 0.335 | 1.45 ± 0.077 | 0.984 ± 0.164 | – | – | – | – | – |
| CC(C)(C)c1nc(-c2cccc(NS(=O)(=O)c3c(F)cccc3F)c2F)c(-c2ccnc(N[C@H]3CC[C@@H](C(=O)O)CC3)n2)s1 [6-85, (1s,4s)-4-((4-(2-(tert-butyl)-4-(3-((2,6-difluorophenyl)sulfonamido)-2-fluorophenyl)thiazol-5-yl)pyrimidin-2-yl)amino)cyclohexane-1-carboxylic acid] | 474 ± 11.8 | 0.709 ± 0.045 | 2.26 ± 0.32 | 3.22 ± 0.54 | – | – | – | – | – |
| CC(C)(C)c1nc(-c2cccc(NS(=O)(=O)c3c(F)cccc3F)c2F)c(-c2ccnc(N[C@H]3CC[C@H](C(=O)O)CC3)n2)s1 [6-89, (1r,4r)-4-((4-(2-(tert-butyl)-4-(3-((2,6-difluorophenyl)sulfonamido)-2-fluorophenyl)thiazol-5-yl)pyrimidin-2-yl)amino)cyclohexane-1-carboxylic acid] | 166 ± 4.09 | 2.24 ± 0.126 | 1.25 ± 0.436 | 0.56 ± 0.18 | 166 ± 4.09 | 22.37 ± 1.26 | 12.51 ± 4.36 | – | – |
| CC(C)(C)c1nc(-c2cccc(NS(=O)(=O)c3c(F)cccc3F)c2F)c(-c2ccnc(N[C@@H]3CC[C@H](C(=O)O)C3)n2)s1 [6-91, (1S,3R)-3-((4-(2-(tert-butyl)-4-(3-((2,6-difluorophenyl)sulfonamido)-2-fluorophenyl)thiazol-5-yl)pyrimidin-2-yl)amino)cyclopentane-1-carboxylic acid] | > 1000 | 0.493 ± 0.148 | 0.626 ± 0.238 | 1.3 ± 0.38 | – | – | – | – | – |
| CC(C)(C)c1nc(-c2c(F)ccc(NS(=O)(=O)c3cc(C(F)(F)F)ccc3C(F)(F)F)c2F)c(-c2ccnc(N)n2)s1 [6-145, N-(3-(5-(2-aminopyrimidin-4-yl)-2-(tert-butyl)thiazol-4-yl)-2,4-difluorophenyl)-2,5-bis(trifluoromethyl)benzenesulfonamide] | > 3000 | 0.94 ± 0.05 | 5.66 ± 0.19 | 6.05 ± 0.5 | – | – | – | – | – |
| CC(C)(C)c1nc(-c2cccc(NS(=O)(=O)c3cc(C(F)(F)F)ccc3C(F)(F)F)c2F)c(-c2ccnc(N)n2)s1 [6-163, N-(3-(5-(2-aminopyrimidin-4-yl)-2-(tert-butyl)thiazol-4-yl)-2-fluorophenyl)-2,5-bis(trifluoromethyl)benzenesulfonamide] | > 3000 | – | – | – | – | – | – | – | – |
| CC(C)(C)c1nc(-c2cccc(NS(=O)(=O)c3ccc(F)cc3C(F)(F)F)c2F)c(-c2ccnc(N)n2)s1 [6-166, N-(3-(5-(2-aminopyrimidin-4-yl)-2-(tert-butyl)thiazol-4-yl)-2-fluorophenyl)-4-fluoro-2-(trifluoromethyl)benzenesulfonamide] | > 3000 | – | – | – | – | – | – | – | – |
| CC(C)(C)c1nc(-c2c(F)ccc(NS(=O)(=O)c3ccc(F)cc3C(F)(F)F)c2F)c(-c2ccnc(N)n2)s1 [6-167, N-(3-(5-(2-aminopyrimidin-4-yl)-2-(tert-butyl)thiazol-4-yl)-2,4-difluorophenyl)-4-fluoro-2-(trifluoromethyl)benzenesulfonamide] | > 3000 | – | – | – | – | – | – | – | – |
| CC(C)NCC(O)COc1cccc2ccccc12 (stereo not shown) [Propranolol, reference compound] | – | – | – | 1.18 | – | – | – | – | – |
| C=C[C@H]1C[N@@]2CC[C@H]1C[C@@H]2[C@@H](O)c1ccnc2ccc(OC)cc12 [Quinidine, reference compound] | – | – | – | 8.09 | – | – | – | – | – |

Second part, led by results:

| IC50 (A375 cells; Homo sapiens, A-375, 72 h) [nM] | Papp A→B at 90 min, 10 µM (P-gp) [×10⁻⁶ cm/s] | Papp B→A at 90 min, 10 µM (P-gp) [×10⁻⁶ cm/s] | efflux ratio at 90 min, 10 µM (P-gp) | IC50 (A375 cells) [nM] | Papp A-B (P-gp; MDR1-MDCK) [nm/s] | Papp B-A (P-gp; MDR1-MDCK) [nm/s] | ER (efflux ratio) (P-gp; MDR1-MDCK) | SMILES | Emax (A375 cells; Homo sapiens) [%] |
| --- | --- | --- | --- | --- | --- | --- | --- | --- | --- |
| 115 | 1.09 ± 0.097 | 2.17 ± 0.371 | 1.96 ± 0.22 | 115 ± 9.85 | 10.89 ± 0.97 | 21.65 ± 3.71 | – | CC(C)(C)c1nc(-c2cccc(NS(=O)(=O)c3c(F)cccc3F)c2F)c(-c2ccnc(NCCCCC(=O)O)n2)s1 [6-83, 5-((4-(2-(tert-butyl)-4-(3-((2,6-difluorophenyl)sulfonamido)-2-fluorophenyl)thiazol-5-yl)pyrimidin-2-yl)amino)pentanoic acid] | 65 |
| 628 ± 105 | 0.844 ± 0.214 | 0.445 ± 0.04 | 0.61 ± 0.16 | 628 ± 105 | – | – | 0.607 ± 0.16 | CC(C)(C)c1nc(-c2cccc(NS(=O)(=O)c3c(F)cccc3F)c2F)c(-c2ccnc(NCCCC(=O)O)n2)s1 [6-86, 4-((4-(2-(tert-butyl)-4-(3-((2,6-difluorophenyl)sulfonamido)-2-fluorophenyl)thiazol-5-yl)pyrimidin-2-yl)amino)butanoic acid] | 65 |
| > 1000 | 0.868 ± 0.021 | 0.741 ± 0.156 | 0.86 ± 0.19 | – | – | – | – | CC(C)(C)c1nc(-c2cccc(NS(=O)(=O)c3c(F)cccc3F)c2F)c(-c2ccnc(CCC(=O)O)n2)s1 [6-97, 3-(4-(2-(tert-butyl)-4-(3-((2,6-difluorophenyl)sulfonamido)-2-fluorophenyl)thiazol-5-yl)pyrimidin-2-yl)propanoic acid] | – |
| 1270 ± 54.4 | – | 0.325 ± 0.124 | – | – | – | – | – | CC(C)(C)c1nc(-c2cccc(NS(=O)(=O)c3c(F)cccc3F)c2F)c(-c2ccnc(NCCCCc3nnn[nH]3)n2)s1 [6-121, N-(3-(5-(2-((4-(1H-tetrazol-5-yl)butyl)amino)pyrimidin-4-yl)-2-(tert-butyl)thiazol-4-yl)-2-fluorophenyl)-2,6-difluorobenzenesulfonamide] | 60 |
| 1580 ± 458 | 0.449 ± 0.008 | 1.03 ± 0.166 | 1.93 ± 0.08 | – | – | – | – | CC(C)(C)c1nc(-c2cccc(NS(=O)(=O)c3c(F)cccc3F)c2F)c(-c2ccnc(CCCCC(=O)O)n2)s1 [6-131, 5-(4-(2-(tert-butyl)-4-(3-((2,6-difluorophenyl)sulfonamido)-2-fluorophenyl)thiazol-5-yl)pyrimidin-2-yl)pentanoic acid] | 60 |
| > 50000 | – | – | – | – | – | – | – | CC(C)(C)c1nc(-c2cccc(NS(=O)(=O)c3ccc(F)cc3C(F)(F)F)c2F)c(-c2ccnc(NCCCCC(=O)O)n2)s1 [6-181, 5-((4-(2-(tert-butyl)-4-(2-fluoro-3-((4-fluoro-2-(trifluoromethyl)phenyl)sulfonamido)phenyl)thiazol-yl)pyrimidin-2-yl)amino)pentanoic acid] | – |
| 1750 ± 21.9 | – | – | – | – | – | – | – | CC(C)(C)c1nc(-c2cccc(NS(=O)(=O)c3c(F)cccc3F)c2F)c(-c2ccnc(CCCCCC(=O)O)n2)s1 [6-193, 6-(4-(2-(tert-butyl)-4-(3-((2,6-difluorophenyl)sulfonamido)-2-fluorophenyl)thiazol-5-yl)pyrimidin-2-yl)hexanoic acid] | 60 |
